Reference: patent US20100075965A1, “PI3 KINASE INHIBITORS AND METHODS OF THEIR USE” (Novartis AG, priority 2006, published 2010)
Like-named read-outs stand apart in the source and are kept apart here.

Legend:
[1] = system: pSer473-Akt in A2780 cells; assay: pSer473 Akt assay to monitor PI3K pathway in A2780 cells (MSD); format: cell-based; settings: Homo sapiens
Experimental: In this method, an assay for measuring the PI3K-mediated pSer^473-Akt status after treatment with representative inhibitor compounds of the preferred embodiments is described.
A2780 cells were cultured in DMEM supplemented with 10% FBS, L-glutamine, sodium pyruvate, and antibiotics. Cells were plated in the same medium at a density of 15,000 cells per well into 96 well tissue culture plates, with outside wells vacant, and allowed to adhere overnight.
Test compounds supplied in DMSO were diluted further into DMSO at 500 times the desired final concentrations before dilution into culture media to 2 times the final concentrations. Equal volumes of 2× compounds in media were added to the cells in 96 well plates and incubated at 37° C. for one hour. The media and compounds were then removed, the plates chilled and cells lysed in a lysis buffer (150 mM NaCl, 20 mM Tris pH 7.5, 1 mM EDTA, 1 mM EGTA, 1% Triton X-100) supplemented with phosphatase and protease inhibitors. After thorough mixing, lysates were transferred to both pSer473Akt and total Akt assay plates from Meso Scale Discovery (MSD), and incubated overnight with shaking at 4° C. The plates were washed with 1×MSD wash buffer and the captured analytes detected with secondary antibodies. After incubation with the secondary antibody at room temperature for 1-2 hours, the plates were washed again and 1.5× concentration of Read Buffer T (MSD) was added to the wells.
The assays were read on a SECTOR Imager 6000 instrument (Meso Scale Discovery). Ratios of the signal from pSer473Akt and total Akt assays were used to correct for any variability and the percent inhibition of pSer473Akt from the total signal seen in cells treated with compound versus DMSO alone was calculated and used to determine EC50 values for each compound as shown in Tables 1 and 2 in the column labeled “A2780 pAKT473 EC50”.

[2] = target: PI3 K Alpha (Homo sapiens, UniProt P42336); assay: PI3 kinase phosphorylation assays (homogenous solution phase, one step solid phase, ATP depletion/KinaseGlo); format: biochemical
Sequence of PI3 K Alpha (P42336 whole entry): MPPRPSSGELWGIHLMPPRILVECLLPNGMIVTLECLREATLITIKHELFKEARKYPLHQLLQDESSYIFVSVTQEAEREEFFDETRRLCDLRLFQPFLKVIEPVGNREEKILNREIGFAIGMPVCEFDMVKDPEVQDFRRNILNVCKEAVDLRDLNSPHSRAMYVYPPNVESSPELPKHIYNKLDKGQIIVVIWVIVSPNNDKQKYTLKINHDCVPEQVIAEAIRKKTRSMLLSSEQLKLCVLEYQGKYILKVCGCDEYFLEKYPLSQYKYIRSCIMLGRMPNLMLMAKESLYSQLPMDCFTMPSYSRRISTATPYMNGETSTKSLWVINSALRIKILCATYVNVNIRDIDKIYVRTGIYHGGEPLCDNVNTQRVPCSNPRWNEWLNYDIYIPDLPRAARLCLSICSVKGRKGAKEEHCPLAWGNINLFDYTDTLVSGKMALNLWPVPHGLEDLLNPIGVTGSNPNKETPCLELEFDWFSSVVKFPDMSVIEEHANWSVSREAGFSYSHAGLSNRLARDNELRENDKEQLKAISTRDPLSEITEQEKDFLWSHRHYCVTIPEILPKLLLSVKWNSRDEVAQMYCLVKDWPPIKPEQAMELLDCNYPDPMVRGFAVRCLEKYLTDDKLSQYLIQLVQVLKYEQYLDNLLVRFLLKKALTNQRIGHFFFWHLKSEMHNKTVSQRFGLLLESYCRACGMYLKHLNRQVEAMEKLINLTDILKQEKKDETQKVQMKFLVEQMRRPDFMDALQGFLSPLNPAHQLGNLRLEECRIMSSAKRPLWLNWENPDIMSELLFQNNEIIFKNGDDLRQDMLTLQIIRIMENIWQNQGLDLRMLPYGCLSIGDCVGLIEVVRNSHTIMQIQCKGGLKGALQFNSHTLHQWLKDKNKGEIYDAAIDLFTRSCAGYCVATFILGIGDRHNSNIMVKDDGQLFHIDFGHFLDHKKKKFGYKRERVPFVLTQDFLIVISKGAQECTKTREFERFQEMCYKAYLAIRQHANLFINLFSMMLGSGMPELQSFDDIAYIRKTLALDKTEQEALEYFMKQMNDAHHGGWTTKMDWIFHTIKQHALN
Sequence of PI3 K Alpha (P27986 whole entry partner): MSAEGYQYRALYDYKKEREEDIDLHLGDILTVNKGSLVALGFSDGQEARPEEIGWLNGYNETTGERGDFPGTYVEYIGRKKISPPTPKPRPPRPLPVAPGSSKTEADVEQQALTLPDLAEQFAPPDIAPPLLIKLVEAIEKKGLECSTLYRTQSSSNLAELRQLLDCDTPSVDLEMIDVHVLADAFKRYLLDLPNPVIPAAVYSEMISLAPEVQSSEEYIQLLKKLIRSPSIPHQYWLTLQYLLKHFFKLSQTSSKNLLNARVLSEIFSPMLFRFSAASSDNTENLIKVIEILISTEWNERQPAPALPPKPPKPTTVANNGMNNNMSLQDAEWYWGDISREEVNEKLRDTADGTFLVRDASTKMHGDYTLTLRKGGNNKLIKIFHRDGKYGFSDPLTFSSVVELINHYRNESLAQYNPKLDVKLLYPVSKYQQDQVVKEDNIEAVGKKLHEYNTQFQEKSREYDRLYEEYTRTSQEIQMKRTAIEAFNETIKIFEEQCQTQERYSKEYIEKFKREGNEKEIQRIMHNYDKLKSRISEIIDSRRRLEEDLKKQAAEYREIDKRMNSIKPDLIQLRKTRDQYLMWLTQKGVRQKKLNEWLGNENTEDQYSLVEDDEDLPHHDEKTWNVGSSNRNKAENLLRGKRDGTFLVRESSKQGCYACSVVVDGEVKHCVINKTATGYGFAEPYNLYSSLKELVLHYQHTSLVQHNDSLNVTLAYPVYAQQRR

[3] = system: A2780 cells; assay: Viability assay in A2780 (Cell Titer Glo); format: cell-based, human; settings: Homo sapiens, read-out: A2780 Cell prolif. EC50
Outline: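 A2780 cells (1,000/well, DMEM + 10% FBS) were exposed to 3-fold serial dilutions of compound for 72 hrs at 37° C, 5% CO2. Viable cells were read by Cell Titer Glo luminescence, in duplicate, and EC50 values were derived from the curves.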

[4] = A2780 cells, read-out: A2780 pAKT 473 EC50
[5] = 1 h, A2780 cells, one hour incubation, read-out: A2780 pAKT473 EC50

**Q.** With `COCCOc1nc(-c2ccc3nc(NC(C)=O)cn3c2)cnc1N` [Example 61, N-(6-(5-amino-6-(2-methoxyethoxy)pyrazin-2-yl)imidazo[1,2-a]pyridin-2-yl)acetamide] as the compound, how does the EC50 [1, 4] read?
**A.** < 1 µM

**Q.** `COc1nc(-c2ccc3nc(NC(C)=O)cn3c2)cnc1N` [Example 101, N-(6-(5-amino-6-methoxypyrazin-2-yl)imidazo[1,2-a]pyridin-2-yl)acetamide] was tested. Which EC50 [1, 4] did it give?
**A.** < 1 µM

**Q.** Which EC50 [1, 4] does the source give for `Nc1ncc(-c2ccc3nc(NC(=O)c4ccc(-n5ccnc5)cc4)cn3c2)cc1C(F)(F)F` [Example 187, N-(6-(6-amino-5-(trifluoromethyl)pyridin-3-yl)imidazo[1,2-a]pyridin-2-yl)-4-(1H-imidazol-1-yl)benzamide] here?
**A.** < 1 µM

**Q.** What about the IC50 ([2]; read-out: PI3K Alpha IC50) of the same compound?
**A.** < 1 µM

**Q.** And the EC50 ([3]; A2780 cells)?
**A.** < 10 µM

**Q.** With `CC(=O)Nc1nc2ccc(-c3cnc(N)c(C(F)(F)F)c3)c(F)c2s1` [Example 2-30, N-[6-(6-Amino-5-trifluoromethyl-pyridin-3-yl)-7-fluoro-benzothiazol-2-yl]-acetamide] as the compound, how does the EC50 [1, 5] read?
**A.** < 1 µM

**Q.** And the IC50 ([2]; ATP depletion assay, read-out: PI3 K Alpha IC50)?
**A.** < 1 µM

**Q.** What about the EC50 ([3]; A2780 cells, 72 hrs) of the same compound?
**A.** < 10 µM

**Q.** Which results are given for `CC(=O)Nc1cn2cc(-c3cnc(N)c(N4CCN(C)CC4)n3)ccc2n1` [Example 131, N-(6-(5-amino-6-(4-methylpiperazin-1-yl)pyrazin-2-yl)imidazo[1,2-a]pyridin-2-yl)acetamide]?
**A.** EC50 [1, 4]: < 1 µM; IC50 ([2]; read-out: PI3K Alpha IC50): < 1 µM; EC50 ([3]; A2780 cells): < 10 µM

**Q.** Which results are given for `CC(=O)Nc1cn2cc(-c3cnc(N)c(Oc4ccccc4)n3)ccc2n1` [Example 75, N-(6-(5-amino-6-phenoxypyrazin-2-yl)imidazo[1,2-a]pyridin-2-yl)acetamide]?
**A.** EC50 [1, 4]: < 1 µM; IC50 ([2]; read-out: PI3K Alpha IC50): < 1 µM; EC50 ([3]; A2780 cells): < 1 µM

**Q.** With `CC(=O)Nc1cn2cc(-c3cnc(N)nc3)ccc2n1` [Example 4, N-[6-(2-Amino-pyrimidin-5-yl)-imidazo[1,2-a]pyridin-2-yl]-acetamide] as the compound, how does the EC50 [1, 4] read?
**A.** < 10 µM

**Q.** What about the IC50 ([2]; read-out: PI3K Alpha IC50) of the same compound?
**A.** < 1 µM

**Q.** And the EC50 ([3]; A2780 cells)?
**A.** < 25 µM

**Q.** What does the source list for `CC(C)(C)OC(=O)N1CC[C@@H](OCC(=O)Nc2cn3nc(-c4cnc(N)c(C(F)(F)F)c4)ccc3n2)C1` [Example 102, (R)-tert-butyl 3-(2-(6-(6-amino-5-(trifluoromethyl)pyridin-3-yl)imidazo[1,2-b]pyridazin-2-ylamino)-2-oxoethoxy) pyrrolidine-1-carboxylate]?
**A.** EC50 [1, 4]: < 1 µM; IC50 ([2]; read-out: PI3K Alpha IC50): < 1 µM; EC50 ([3]; A2780 cells): < 1 µM

**Q.** For `CC(=O)Nc1nc2ccc(-c3cnc(N)c(C(F)(F)F)c3)cn2c1-c1ccc(C(N)=O)cc1` [Example 13, 4-[2-Acetylamino-6-(6-amino-5-trifluoromethyl-pyridin-3-yl)-imidazo[1,2-a]pyridin-3-yl]-benzamide], which EC50 [1, 4] is on record?
**A.** < 25 µM

**Q.** What about the IC50 ([2]; read-out: PI3K Alpha IC50) of the same compound?
**A.** < 1 µM

**Q.** And the EC50 ([3]; A2780 cells)?
**A.** < 25 µM

**Q.** For `COc1ccc(C#Cc2c(NC(C)=O)nc3ccc(-c4cnc(N)c(C(F)(F)F)c4)cn23)cc1` [Example 117, N-(6-(6-amino-5-(trifluoromethyl)pyridin-3-yl)-3-((4-methoxyphenyl)ethynyl)imidazo[1,2-a]pyridin-2-yl)acetamide], which EC50 [1, 4] is on record?
**A.** < 1 µM

**Q.** And the IC50 ([2]; read-out: PI3K Alpha IC50)?
**A.** < 1 µM

**Q.** And the EC50 ([3]; A2780 cells)?
**A.** < 10 µM

**Q.** Which results are given for `CC(=O)Nc1nc2ccc(-c3cnc(N)nc3)cc2s1` [Example 2-1, N-[6-(2-Amino-pyrimidin-5-yl)-benzothiazol-2-yl]-acetamide]?
**A.** EC50 [1, 5]: < 1 µM; EC50 ([3]; A2780 cells, 72 hrs): < 10 µM

**Q.** For `COc1cc(-c2ccc3nc(NC(C)=O)cn3c2)cnc1N` [Example 6, N-[6-(6-Amino-5-methoxy-pyridin-3-yl)-imidazo[1,2-a]pyridin-2-yl]-acetamide], which EC50 [1, 4] is on record?
**A.** < 1 µM

**Q.** Which EC50 [1, 4] does the source give for `COc1cc(-c2ccc3nc(NC(C)=O)cn3n2)cnc1N` [Example 21, N-[6-(6-Amino-5-methoxy-pyridin-3-yl)-imidazo[1,2-b]pyridazin-2-yl]-acetamide] here?
**A.** < 1 µM

**Q.** With `CCOc1nc(-c2ccc3nc(NC(C)=O)cn3c2)cnc1N` [Example 62, N-(6-(5-amino-6-ethoxypyrazin-2-yl)imidazo[1,2-a]pyridin-2-yl)acetamide] as the compound, how does the EC50 [1, 4] read?
**A.** < 1 µM

**Q.** How did the EC50 [1, 5] turn out when `Nc1ncc(-c2ccc3nc(NC(=O)CCCN4CCOCC4)sc3c2)cc1C(F)(F)F` [Example 2-12, N-[6-(6-Amino-5-trifluoromethyl-pyridin-3-yl)-benzothiazol-2-yl]-4-morpholin-4-yl-butyramide] was run?
**A.** < 1 µM

**Q.** And the EC50 ([3]; A2780 cells, 72 hrs)?
**A.** < 10 µM

**Q.** For `Nc1ccc(-c2ccc3nc(NC(=O)CCCN4CCCCC4)sc3c2)cn1` [Example 2-5, N-[6-(6-Amino-pyridin-3-yl)-benzothiazol-2-yl]-4-piperidin-1-yl-butyramide], which EC50 [1, 5] is on record?
**A.** < 1 µM

**Q.** And the EC50 ([3]; A2780 cells, 72 hrs)?
**A.** < 10 µM

**Q.** `Nc1ncc(-c2ccc3nc(NC(=O)[C@@H]4CCCCN4)cn3c2)cc1C(F)(F)F` [Example 283, (S)-N-(6-(6-amino-5-(trifluoromethyl)pyridin-3-yl)imidazo[1,2-a]pyridin-2-yl)piperidine-2-carboxamide] was tested. Which EC50 [1, 4] did it give?
**A.** < 1 µM

**Q.** And the EC50 ([3]; A2780 cells)?
**A.** < 10 µM

**Q.** Which EC50 [1, 5] does the source give for `CC(=O)Nc1nc2ccc(-c3ccc(N)nc3)cc2s1` [Example 2-2, N-[6-(6-Amino-pyridin-3-yl)-benzothiazol-2-yl]-acetamide] here?
**A.** < 1 µM

**Q.** And the EC50 ([3]; A2780 cells, 72 hrs)?
**A.** < 10 µM

**Q.** `CCOc1cc(-c2ccc3nc(NC(C)=O)cn3c2)cnc1N` [Example 111, N-(6-(6-amino-5-ethoxypyridin-3-yl)imidazo[1,2-a]pyridin-2-yl)acetamide] was tested. Which EC50 [1, 4] did it give?
**A.** < 1 µM

**Q.** For `CC(=O)Nc1cn2cc(-c3cnc(N)c(O[C@H](C)C(F)(F)F)n3)ccc2n1` [Example 70, (R)-N-(6-(5-amino-6-(1,1,1-trifluoropropan-2-yloxy)pyrazin-2-a]pyridin-2-yl)acetamide], which EC50 [1, 4] is on record?
**A.** < 1 µM

**Q.** How did the EC50 [1, 4] turn out when `CC(=O)Nc1cn2cc(-c3cnc(N)c(C(F)(F)F)c3)ccc2n1` [Example 5, N-[6-(6-Amino-5-trifluoromethyl-pyridin-3-yl)-imidazo[1,2-a]pyridin-2-yl]-acetamide] was run?
**A.** < 1 µM

**Q.** For `CC(=O)Nc1nc2ccc(-c3cnc(N)c(C(F)(F)F)c3)cc2s1` [Example 2-8, N-[6-(6-Amino-5-trifluoromethyl-pyridin-3-yl)-benzothiazol-2-yl]-acetamide], which EC50 [1, 5] is on record?
**A.** < 1 µM

**Q.** And the EC50 ([3]; A2780 cells, 72 hrs)?
**A.** < 1 µM

**Q.** How did the EC50 [1, 5] turn out when `CC(=O)Nc1nc2ccc(-c3cnc(N)c(C)c3)cc2s1` [Example 2-4, N-[6-(6-Amino-5-methyl-pyridin-3-yl)-benzothiazol-2-yl]-acetamide] was run?
**A.** < 1 µM

**Q.** And the EC50 ([3]; A2780 cells, 72 hrs)?
**A.** < 10 µM

**Q.** `CC(=O)Nc1cn2cc(-c3cnc(N)c(O[C@@H](C)C(F)(F)F)n3)ccc2n1` [Example 55, (S)-N-(6-(5-amino-6-(1,1,1-trifluoropropan-2-yloxy)pyrazin-2-yl)imidazo[1,2-a]pyridin-2-yl)acetamide] was tested. Which EC50 [1, 4] did it give?
**A.** < 1 µM

**Q.** For `CC(=O)Nc1cn2cc(-c3cnc(N)c(OCC(F)(F)F)n3)ccc2n1` [Example 56, N-(6-(5-amino-6-(2,2,2-trifluoroethoxy)pyrazin-2-yl)imidazo[1,2-a]pyridin-2-yl)acetamide], which EC50 [1, 4] is on record?
**A.** < 1 µM

**Q.** For `CC(=O)Nc1cn2cc(-c3cnc(N)c(OC(C)C)n3)ccc2n1` [Example 54, N-(6-(5-amino-6-isopropoxy-pyrazin-2-yl)imidazo[1,2-a]pyridin-2-yl)acetamide], which EC50 [1, 4] is on record?
**A.** < 1 µM

**Q.** For `COc1cc(-c2ccc3nc(NC(C)=O)sc3c2)cnc1N` [Example 2-9, N-[6-(6-Amino-5-methoxy-pyridin-3-yl)-benzothiazol-2-yl]-acetamide], which EC50 ([1]; A2780, 1 h, read-out: A2780 pAKT473 EC50) is on record?
**A.** < 1 µM

**Q.** What about the EC50 ([3]; A2780, 72 h) of the same compound?
**A.** < 1 µM

**Q.** `CC(=O)Nc1cn2nc(-c3cnc(N)c(C(F)(F)F)c3)ccc2n1` [Example 16, N-[6-(6-Amino-5-trifluoromethyl-pyridin-3-yl)-imidazo[1,2-b]pyridazin-2-yl]-acetamide] was tested. Which EC50 [1, 4] did it give?
**A.** < 1 µM

**Q.** `CCOc1cc(-c2ccc3nc(NC(C)=O)cn3n2)cnc1N` [Example 119, N-(6-(6-amino-5-ethoxypyridin-3-yl)imidazo[1,2-b]pyridazin-2-yl)acetamide] was tested. Which EC50 [1, 4] did it give?
**A.** < 1 µM

**Q.** Which results are given for `Nc1ccc(-c2ccc3nc(NC(=O)C(F)(F)F)cn3c2)cn1` [Example 1, N-[6-(6-Amino-pyridin-3-yl)-imidazo[1,2-a]pyridin-2-yl]-2,2,2-trifluoro-acetamide]?
**A.** EC50 [1, 4]: < 10 µM; EC50 ([3]; A2780 cells): < 25 µM

**Q.** With `Nc1ncc(-c2ccc3nc(NC(=O)CCCN4CCCCC4)sc3c2)cc1C(F)(F)F` [Example 2-21, N-[6-(6-Amino-5-trifluoromethyl-pyridin-3-yl)-benzothiazol-2-yl]-4-piperidin-1-yl-butyramide] as the compound, how does the EC50 [1, 5] read?
**A.** < 1 µM

**Q.** What about the EC50 ([3]; A2780 cells, 72 hrs) of the same compound?
**A.** < 10 µM

**Q.** With `COCCOc1cc(-c2ccc3nc(NC(C)=O)cn3n2)cnc1N` [Example 106, N-(6-(6-amino-5-(2-methoxyethoxy)pyridin-3-yl)imidazo[1,2-b]pyridazin-2-yl)acetamide] as the compound, how does the EC50 [1, 4] read?
**A.** < 1 µM
